In patent publication US10703733B2, “MCL-1 inhibitors” (Gilead Sciences, Inc., priority 2018, dated 2020):

Assays:
[1] = target: MCL-1/Bim interaction (recombinant human MCL-1 protein, residues 171-327; biotinylated human Bim peptide, residues 51-76) (Homo sapiens (Human), UniProt Q07820); experiment: MCL-1/Bim Binding AlphaLISA Assay; settings: 0.0625 nM 6xHis-Mcl-1 (171-327), 0.0625 nM biotinylated-Bim peptide
Method in brief: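 Protein 0.0625 nM + cpd, 1 h; add biotin-Bim 0.0625 nM, 2 h; acceptor beads 1 h; donor beads 1 h; AlphaScreen read. Buffer 20 mM Hepes pH 7.5, 150 mM NaCl, 1 mM DTT.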

SKBR3 cells = experiment: SKBR3 Cell Viability Assay (CellTiter Glo); format: cell-based; settings: Homo sapiens, SK-BR-3, 72 h, CellTiter Glo luminescence, read-out: MCL-1 CV SKBR3 EC50
Method in brief: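 Viability read as CellTiter Glo luminescence after 72 h of compound exposure at 37° C./5% CO2, using 6,000 SKBR3 cells per well in McCoy 5A with 10% FBS. Percent inhibition scaled between DMSO wells and 10 μM puromycin wells.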

Chain of MCL-1/Bim interaction (recombinant human MCL-1 protein, residues 171-327; biotinylated human Bim peptide, residues 51-76) (Q07820 171-327): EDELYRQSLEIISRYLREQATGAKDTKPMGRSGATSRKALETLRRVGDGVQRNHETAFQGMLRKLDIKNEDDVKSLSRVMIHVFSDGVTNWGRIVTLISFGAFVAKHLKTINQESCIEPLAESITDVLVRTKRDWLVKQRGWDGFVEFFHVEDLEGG

| IC50 [1] | EC50 (SKBR3 cells) | SMILES |
| --- | --- | --- |
| 0.031 nM | 37.1 nM | CO[C@H]1/C=C/C[C@H](C)C[S@@](=O)(NC(=O)NC23COC(C)(C2)C3)=NC(=O)c2ccc3c(c2)N(C[C@@H]2CC[C@H]21)C[C@@]1(CCCc2cc(Cl)ccc21)CO3 [Example 340] |
| 0.033 nM | 64.3 nM | CO[C@H]1/C=C/C[C@H](C)C[S@@](=O)(NC(=O)N[C@H]2C[C@H](CO)C2)=NC(=O)c2ccc3c(c2)N(C[C@@H]2CC[C@H]21)C[C@@]1(CCCc2cc(Cl)ccc21)CO3 [Example 189] |
| 0.03 nM | 184 nM | CO[C@H]1/C=C/C[C@H](C)C[S@@](=O)(NC(=O)N2CC(CO)(OC)C2)=NC(=O)c2ccc3c(c2)N(C[C@@H]2CC[C@H]21)C[C@@]1(CCCc2cc(Cl)ccc21)CO3 [Example 267] |
| 0.103 nM | 332 nM | CO[C@H]1/C=C\C[C@H](C)[C@@H](C)[S@@](=O)(NC(=O)COC2CCOCC2)=NC(=O)c2ccc3c(c2)N(C[C@@H]2CC[C@H]21)C[C@@]1(CCCc2cc(Cl)ccc21)CO3 [Example 406] |
| 0.14 nM | 222 nM | COc1nn(C)cc1C(=O)N[S@@]1(=O)=NC(=O)c2ccc3c(c2)N(C[C@@H]2CC[C@H]2[C@@H](OC(C)=O)/C=C/C[C@H](C)[C@H]1C)C[C@@]1(CCCc2cc(Cl)ccc21)CO3 [Example 249] |
| 0.033 nM | 23.4 nM | CO[C@H]1/C=C/C[C@H](C)C[S@@](=O)(NC(=O)c2cc(CN3CCN4CCOC[C@@H]4C3)n(C)c2)=NC(=O)c2ccc3c(c2)N(C[C@@H]2CC[C@H]21)C[C@@]1(CCCc2cc(Cl)ccc21)CO3 [Example 238] |
| 0.035 nM | 187 nM | CCn1ncc(C(=O)N[S@@]2(=O)=NC(=O)c3ccc4c(c3)N(C[C@@H]3CC[C@H]3[C@@H](OC)/C=C/C[C@H](C)C2)C[C@@]2(CCCc3cc(Cl)ccc32)CO4)n1 [Example 422] |
| 0.085 nM | 392 nM | CO[C@H]1/C=C/C[C@H](C)C[S@@](=O)(NC(=O)N2CCn3cccc3C2)=NC(=O)c2ccc3c(c2)N(C[C@@H]2CC[C@H]21)C[C@@]1(CCCc2cc(Cl)ccc21)CO3 [Example 457] |
| 0.066 nM | 74.4 nM | CO[C@H]1/C=C/C[C@H](C)C[S@@](=O)(NC(=O)N[C@@H]2C[C@@H]2OC)=NC(=O)c2ccc3c(c2)N(C[C@@H]2CC[C@H]21)C[C@@]1(CCCc2cc(Cl)ccc21)CO3 [Example 318] |
| 0.478 nM | 130 nM | CO[C@H]1/C=C/C[C@H](C)C[S@@](=O)(NC(=O)c2cc(C)n(C)c2)=NC(=O)c2ccc3c(c2)N(C[C@@H]2CC[C@H]21)C[C@@]1(CCCc2cc(Cl)ccc21)CO3 [Example 413] |
| 0.112 nM | 60.5 nM | CO[C@H]1/C=C/C[C@H](C)[C@@H](C)[S@@](=O)(NC(=O)c2cnn(C)c2)=NC(=O)c2ccc3c(c2)N(C[C@@H]2CC[C@H]21)C[C@@]1(CCCc2cc(Cl)ccc21)CO3 [Example 138] |
| 0.209 nM | 222 nM | COc1nn(C)cc1C(=O)N[S@@]1(=O)=NC(=O)c2ccc3c(c2)N(C[C@@H]2CC[C@H]2[C@@H](N2CC(OC)C2)/C=C/C[C@H](C)C1)C[C@@]1(CCCc2cc(Cl)ccc21)CO3 [Example 464] |
| 0.049 nM | 18.5 nM | COC[C@H]1Cn2cc(C(=O)N[S@@]3(=O)=NC(=O)c4ccc5c(c4)N(C[C@@H]4CC[C@H]4[C@@H](O)/C=C/C[C@H](C)[C@H]3C)C[C@@]3(CCCc4cc(Cl)ccc43)CO5)cc2CO1 [Example 344] |
| 0.2 nM | 266 nM | CO[C@H]1/C=C/CCC[S@@](=O)(NC(=O)CCc2cnccn2)=NC(=O)c2ccc3c(c2)N(C[C@@H]2CC[C@H]21)C[C@@]1(CCCc2cc(Cl)ccc21)CO3 [Example 35] |
| 0.114 nM | 167 nM | CO[C@H]1/C=C/C[C@H](C)C[S@@](=O)(NC(=O)C2CC3(CCOCC3)C2)=NC(=O)c2ccc3c(c2)N(C[C@@H]2CC[C@H]21)C[C@@]1(CCCc2cc(Cl)ccc21)CO3 [Example 435] |

| SMILES | IC50 [1] | EC50 (SKBR3 cells) |
| --- | --- | --- |
| CO[C@H]1/C=C/C[C@H](C)C[S@@](=O)(NC(=O)c2cn(C)nc2OCCN2CCOCC2)=NC(=O)c2ccc3c(c2)N(C[C@@H]2CC[C@H]21)C[C@@]1(CCCc2cc(Cl)ccc21)CO3 [Example 319] | 0.038 nM | 19.9 nM |
